From patent US12344610B2, “APOL1 inhibitors and methods of use” (Maze Therapeutics, Inc., priority 2022, dated 2025)

Test system: human immortalized podocytes inducibly expressing APOL1 G2
Assay: APOL1 G2 podocyte cell rescue assay (Example B4)
Type: cell-based
Settings: Homo sapiens, differentiated human podocytes, doxycycline-induced APOL1 G2, CellTiter-Glo; geometric mean of at least 2 runs; † = single run
Procedure, shortened: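 Differentiated hTERT-immortalized podocytes (clone D10) with doxycycline-inducible C-terminally HiBiT-tagged APOL1 G2, 6,000 cells/well, treated with doxycycline plus 8-point 3-fold compound series (0.4% DMSO) for 95 h at 37 °C. Viability by CellTiter-Glo luminescence; EC50 as geometric mean of ≥2 runs, each in duplicate.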

`C[C@]1(O)C[C@@H](N2C(=O)NCc3cc(OCCN4CCC5(CC4)C(=O)Nc4ccc(Cl)cc45)cnc32)C1` [Compound 356, 5-chloro-1′-[2-({2-oxo-1-[(cis)-3-hydroxy-3-methylcyclobutyl]-1H,2H,3H,4H-pyrido[2,3-d]pyrimidin-6-yl}oxy)ethyl]-1,2-dihydrospiro[indole-3,4′-piperidin]-2-one] and `C[C@]1(O)C[C@@H](N2C(=O)Cc3cc(OCCN4CCC5(CC4)C(=O)Nc4ccc(Cl)cc45)cnc32)C1` [Compound 345, 5-chloro-1′-[2-({2-oxo-1-[(cis)-3-hydroxy-3-methylcyclobutyl]-1H,2H,3H-pyrrolo[2,3-b]pyridin-5-yl}oxy)ethyl]-1,2-dihydrospiro[indole-3,4′-piperidin]-2-one] are within 1.5-fold of each other in EC50: 21.5 nM for the first, 15.8 nM for the second.

Compared with `C[C@]1(O)C[C@@H](n2cnc3cc(OCCN4CCC5(CC4)C(=O)Nc4ccc(Cl)cc45)cc(C#N)c32)C1` [Compound 439, 5-(2-{5-chloro-2-oxo-1,2-dihydrospiro[indole-3,4′-piperidin]-1′-yl}ethoxy)-1-[(cis)-3-hydroxy-3-methylcyclobutyl]-1H-1,3-benzodiazole-7-carbonitrile], `C[C@]1(O)C[C@H](n2ncc3cc(OCCN4CCC5(CC4)C(=O)Nc4ccc(Cl)cc45)cnc32)C1` (single isomer, unassigned) [Compound 408, 5-chloro-1′-[2-({1-[(trans)-3-hydroxy-3-methylcyclobutyl]-1H-pyrazolo[3,4-b]pyridin-5-yl}oxy)ethyl]-1,2-dihydrospiro[indole-3,4′-piperidin]-2-one] is 1.8-fold higher in EC50: 3.92 nM for the first, 7.05 nM for the second.

Compared with `C[C@]1(O)C[C@@H](n2cnc3cc(OCCN4CCC5(CC4)C(=O)Nc4c(I)cc(Cl)cc45)cc(C(F)(F)F)c32)C1` [Compound 453, 5-chloro-7-iodo-1′-[2-({1-[(cis)-3-hydroxy-3-methylcyclobutyl]-7-(trifluoromethyl)-1H-1,3-benzodiazol-5-yl}oxy)ethyl]-1,2-dihydrospiro[indole-3,4′-piperidin]-2-one], `CC(C)(O)c1ncc(OCCN2CCC3(CC2)C(=O)Nc2ccc(Cl)cc23)cc1C(F)(F)F` [Compound 371, 5-chloro-1′-(2-{[6-(2-hydroxypropan-2-yl)-5-(trifluoromethyl)pyridin-3-yl]oxy}ethyl)-1,2-dihydrospiro[indole-3,4′-piperidin]-2-one] is 1.6-fold lower in EC50: 1.81 nM for the first, 1.1 nM for the second. The second is the more potent here.

For `CC1(O)CC(c2ncc(OCCN3CCC4(CC3)C(=O)Nc3ccc(Cl)cc34)cn2)C1` (single isomer, unassigned) [Compound 393, 5-chloro-1′-[2-({2-[(cis) or (trans)-3-hydroxy-3-methylcyclobutyl]pyrimidin-5-yl}oxy)ethyl]-1,2-dihydrospiro[indole-3,4′-piperidin]-2-one], the EC50 was 23 nM.
